Source: publication PMC8876231, “Analogues of Natural Chalcones as Efficient Inhibitors of AKR1C3” (Metabolites, 2022)
Where “and” joins values, the source holds several entries; their conditions need not be identical. Equal entries are not always repeated.

Tests used:
Type in all cases: biochemical
HSD17B4 = target: T1, HSD17B4 (Homo sapiens, UniProt P51659); test: HSD17B4 (SDR domain) inhibition assay (oestradiol to estrone); conditions: 10 µM compound; mean ± SD
T1 construct: pGEX-HSD17B4 (SDR domain) in; GST (own knowledge: pGEX vectors encode N-terminal GST); made in house; host or cells: E. coli BL21 DE3 Codon Plus RP
T1 sequence (P51659 1-305 limits assumed): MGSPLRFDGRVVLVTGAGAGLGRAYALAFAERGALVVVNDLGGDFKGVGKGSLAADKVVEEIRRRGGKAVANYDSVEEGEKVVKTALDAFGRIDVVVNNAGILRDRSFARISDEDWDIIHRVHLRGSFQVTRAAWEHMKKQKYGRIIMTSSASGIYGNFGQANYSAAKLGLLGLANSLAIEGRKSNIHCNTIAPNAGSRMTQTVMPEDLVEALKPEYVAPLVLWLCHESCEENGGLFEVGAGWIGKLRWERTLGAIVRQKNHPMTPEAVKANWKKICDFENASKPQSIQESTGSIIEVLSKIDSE
From the text: (§1) For enzymatic assays and inhibitor testing, all enzymes were cloned into bacterial or mammalian expression vectors. AKR1C3 and the human hydroxysteroid dehydrogenases HSD17B1, HSD17B2, HSD17B4 (SDR domain), HSD17B7, and HSD17B10 were cloned into a pGEX vector as described in [71, 72]. The coding sequences for AKR1C1, AKR1C2, and AKR1C4 were cloned by Gateway technology into the pcDNA3-N-MycDest vector according to the manufacturer’s instructions (Life Technologies, Carlsbad, CA, USA). The p11 plasmid coding for HSD17B14 (S205 variant) was a gift from Udo Opperman SGC Oxford, UK. For assays with HSD17B3, HEK293 cells stably expressing HSD17B3 were used. Enzymes were expressed in E. coli BL21 DE3 or E. coli BL21 DE3 Codon Plus RP (Stratagene, San Diego, CA, USA) or in HEK293 cells as described in [71, 72, 73]. Bacterial and cell pellets were stored at −20 °C and −80 °C, respectively, until use.
(§2) Inhibition assays were carried out as described in [71, 74]. […] For a detailed assay setup, see Supplementary Table S6. The incubation at 37 °C was stopped with 0.21 M ascorbic acid in methanol:acetic acid 99:1 (v:v) after the time needed to convert approximately 30% of the substrate in a control assay with 1% DMSO, without inhibitor candidate. Substrates and products were extracted from the reaction mixture by solid-phase extraction using C18 cartridges (Phenomenex, Aschaffenburg, Germany) and separated by RP–HPLC in a Beckman–Coulter HPLC Gold system, using the Luna 5 µm C18(2), 125 × 4.0 mm column (Phenomenex). The mobile phases used were H2O:ACN (57:43 (v:v); for assays of estrone (E1) to oestradiol (E2), E2 to E1, and ∆4-androstene-3,17-dione to testosterone conversion), H2O:ACN (49:51 (v:v); for assays of progesterone to 20α-hydroxyprogesterone conversion), and H2O:MeOH (35:65 (v:v) for assays of dihydrotestosterone (DHT) to 3α-androstanediol conversion) at a flow rate of 1 mL/min. Radioactivity was detected by online scintillation counting by using a radioactivity monitor (LB506D, Berthold Technologies, Bad Wildbad, Germany). Conversion of substrates to products was determined by integration of the peak area of the substrate and product peaks in percent. For calculation of inhibition, the conversion of control assay (assay without inhibitor) was set to 0% inhibition. All assays were run in triplicates, and mean values ± SD are reported.
(§3) Table S6: Activity assay setup […]
pGEX-HSD17B4 (SDR domain) in E2 à E1 estradiol-[6,7-3H], 40 NAD 750 µM NaPi pH7.7 […]
(§4) E1: estrone; E2: 17β-estradiol, A: Δ4-androstene-3,17-dione; T: testosterone, P: progesterone, 20αOHP: 20α-hydroxyprogesterone, DHT: dihydrotestosterone, 3α-Adiol: 3α-androstanediol, NaPi: 100 mM Na-phosphate buffer; PI: C0mplete protease inhibitor (Roche);. E.coli - Expression in E.coli BL21 DE3 Codon Plus RP except E.coli BL21 DE3 […]
(§5) application to antiparasitic and natural product synthesis. Eur J Org Chem […]
(§6) Synthesis of Xanthohumol analogues and discovery of potent thioredoxin reductase inhibitor as potential anticancer agent. J Med Chem 2015, 58,

HSD17B3 = target: T2, HSD17B3 (Homo sapiens, UniProt P37058); test: HSD17B3 inhibition assay (∆4-androstene-3,17-dione to testosterone, HEK293 stably expressing HSD17B3); conditions: 10 µM compound; mean ± SD
T2 construct: expressed in transfected cells
T2 sequence (P37058 1-310): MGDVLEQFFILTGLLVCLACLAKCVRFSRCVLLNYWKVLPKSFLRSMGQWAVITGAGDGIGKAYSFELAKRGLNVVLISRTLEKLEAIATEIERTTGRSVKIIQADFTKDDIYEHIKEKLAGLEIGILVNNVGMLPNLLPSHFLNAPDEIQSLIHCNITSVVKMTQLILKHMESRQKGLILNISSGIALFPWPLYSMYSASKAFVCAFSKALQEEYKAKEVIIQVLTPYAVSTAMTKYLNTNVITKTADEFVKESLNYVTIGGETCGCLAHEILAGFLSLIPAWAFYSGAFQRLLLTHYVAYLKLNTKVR
From the text: as §1, §2, §3, §4, §5, §6

AKR1C3 = target: T3, AKR1C3 (Homo sapiens, UniProt P42330); test: AKR1C3 enzymatic inhibition assay (∆4-androstene-3,17-dione to testosterone); conditions: for IC50: one-site ligand binding fit
T3 construct: GST (own knowledge: pGEX vectors encode N-terminal GST); made in house; host or cells: E. coli BL21 DE3 Codon Plus RP, lysate
T3 sequence (P42330 1-323): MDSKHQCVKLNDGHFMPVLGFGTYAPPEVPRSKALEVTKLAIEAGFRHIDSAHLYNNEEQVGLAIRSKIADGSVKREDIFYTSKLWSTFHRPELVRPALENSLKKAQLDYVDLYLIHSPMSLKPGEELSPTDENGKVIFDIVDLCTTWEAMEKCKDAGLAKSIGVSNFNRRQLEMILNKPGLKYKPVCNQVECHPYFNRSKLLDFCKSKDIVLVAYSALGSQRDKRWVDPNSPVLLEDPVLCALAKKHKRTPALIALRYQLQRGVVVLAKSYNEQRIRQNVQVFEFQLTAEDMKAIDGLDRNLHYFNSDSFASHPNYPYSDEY
From the text: as §1, §2
For the determination of IC50 values, percent inhibition values were fitted using the Enzyme Kinetics module of SigmaPlot 13.0 and the one-site ligand-binding model according to the formula f = Bmax * abs(x)/(Kd + abs(x)).
as §3, §4, §5, §6

[1] = 10 µM compound, ∆4-androstene-3,17-dione reduction, triplicates, mean ± SD, 10 µM
[2] = ∆4-androstene-3,17-dione reduction, mean ± SD
[3] = 10 µM compound, ∆4-androstene-3,17-dione reduction, triplicates, mean ± SD

**Q.** Which “Inhibition of HSD17B4 at 10 µM in %” value (HSD17B4) does the source give for `Cc1ccc(/C=C/C(=O)c2c(O)cc(O)cc2O)cc1` [Compound 21] here?
**A.** The value was 3.0 ± 6.3%.

**Q.** What about the “Inhibition of HSD17B3 at 10 µM in %” value (HSD17B3) of the same molecule?
**A.** The value was 52.7 ± 6.7%.

**Q.** What about the “AKR1C3 Inhibition at 10 µM [%]” value (AKR1C3; [1]) of the same molecule?
**A.** The value was > 75% and 87.9 ± 4.9%.

**Q.** And the IC50 (AKR1C3; [2])?
**A.** Its IC50 is 5.18 ± 1.64 µM.

**Q.** Which “Inhibition of HSD17B4 at 10 µM in %” value (HSD17B4) does the source give for `COc1ccc(/C=C/C(=O)c2c(O)cc(O)cc2OC)cc1` [Compound 18] here?
**A.** Its value is 9.9 ± 6.1%.

**Q.** What about the “Inhibition of HSD17B3 at 10 µM in %” value (HSD17B3) of the same molecule?
**A.** Its value is 24.8 ± 4.8%.

**Q.** And the “AKR1C3 Inhibition at 10 µM [%]” value (AKR1C3; [1])?
**A.** The value was 47.3 ± 6.4%.

**Q.** What about the IC50 (AKR1C3; [2]) of the same molecule?
**A.** The IC50 was 11.9 ± 2.03 µM.

**Q.** With `Cc1cccc(/C=C/C(=O)c2c(O)cc(O)cc2O)c1` [Compound 20] as the molecule, how does the “Inhibition of HSD17B4 at 10 µM in %” value (HSD17B4) read?
**A.** Its value is 8.6 ± 1.1%.

**Q.** What about the “Inhibition of HSD17B3 at 10 µM in %” value (HSD17B3) of the same molecule?
**A.** The value was 55.9 ± 4.1%.

**Q.** What about the “AKR1C3 Inhibition at 10 µM [%]” value (AKR1C3; [1]) of the same molecule?
**A.** The value was > 75% and 89.2 ± 6.3%.

**Q.** What about the IC50 (AKR1C3; [2]) of the same molecule?
**A.** The IC50 was 1.94 ± 0.32 µM.

**Q.** Which “Inhibition of HSD17B4 at 10 µM in %” value (HSD17B4) does the source give for `COc1ccc(/C=C/C(=O)c2c(O)cc(O)cc2O)cc1` [Compound 19] here?
**A.** The value was 2.0 ± 2.9%.

**Q.** And the “Inhibition of HSD17B3 at 10 µM in %” value (HSD17B3)?
**A.** Its value is 41.8 ± 3.3%.

**Q.** What about the “AKR1C3 Inhibition at 10 µM [%]” value (AKR1C3; [1]) of the same molecule?
**A.** Its value is > 75% and 78.1 ± 2.7%.

**Q.** And the IC50 (AKR1C3; [2])?
**A.** The IC50 was 2.36 ± 0.54 µM.

**Q.** What does the source list for `O=C(/C=C/c1ccc(Cl)cc1Cl)c1c(O)cc(O)cc1O` [Compound 23, 2,4-dichloro-2′,4′,6′-trihydroxychalcone]?
**A.** inhibition at 10 µM (HSD17B4): 19.6 ± 1%; inhibition at 10 µM (HSD17B3): 68.6%; inhibition at 10 µM (AKR1C3; [3]): 90.9 ± 4.6%; Fold more active than natural chalcone 18 (AKR1C3) (AKR1C3; compared with chalcone 18): 10 fold; IC50 (AKR1C3; [2]): 1.08 ± 0.27 µM

**Q.** With `COc1cc(O)cc(O)c1C(=O)/C=C/c1ccc(Cl)cc1Cl` [Compound 25] as the molecule, how does the “Inhibition of HSD17B4 at 10 µM in %” value (HSD17B4) read?
**A.** Its value is -6.0 ± 7.5%.

**Q.** And the “Inhibition of HSD17B3 at 10 µM in %” value (HSD17B3)?
**A.** The value was 20.9 ± 8.0%.

**Q.** What about the “AKR1C3 Inhibition at 10 µM [%]” value (AKR1C3; [3]) of the same molecule?
**A.** The value was 33.3 ± 6.0%.
